Test system: 695427-040-R-J1-PDC complex spheroid viability
Assay: Anticancer human tumor 695427-040-R-J1-PDC patient-derived colon adenocarcinoma cell line growth inhibition [RAS]
Conditions: for IC50: curve of first compound; for viability, T/C: stronger effect = lower value
Method in brief: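 Multi-cell-type spheroids: tumor cells plus HUVEC endothelial cells and mesenchymal stem cells. RAS-pathway inhibitors were combined with targeted agents, each dosed in half-log steps down from clinical Cmax, or from 10 microM when Cmax was unknown.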
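Also: viability read after seven days of drug exposure.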
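For viability, T/C in this document: 100% = DMSO vehicle control viability.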

CCc1c2c(nc3ccc(O)cc13)-c1cc3c(c(=O)n1C2)COC(=O)[C@]3(O)CC + C=CC(=O)N1CCN(c2nc(OCC3CCCN3C)nc3c(F)c(-c4nc(N)cc(C)c4C(F)(F)F)c(Cl)cc23)C(C)C1
IC50 (second compound 0.00316 µM): 112 nM
IC50 (second compound 0.01 µM): 123 nM
IC50 (second compound 0.0316 µM): 129 nM
IC50 (second compound 0.1 µM): 128 nM
IC50 (second compound 0.316 µM): 144 nM
IC50 (second compound 1 µM): 162 nM
viability, T/C (second compound 0.00316 µM, first compound 0.000949 µM): 88%
viability, T/C (second compound 0.00316 µM, first compound 0.003 µM): 88.2%
viability, T/C (second compound 0.00316 µM, first compound 0.00949 µM): 84.8%
viability, T/C (second compound 0.00316 µM, first compound 0.03 µM): 74.5%
viability, T/C (second compound 0.00316 µM, first compound 0.0949 µM): 54.3%
viability, T/C (second compound 0.00316 µM, first compound 0.3 µM): 25.5%
viability, T/C (second compound 0.01 µM, first compound 0.000949 µM): 98.8%
viability, T/C (second compound 0.01 µM, first compound 0.003 µM): 92.1%
viability, T/C (second compound 0.01 µM, first compound 0.00949 µM): 78.7%
viability, T/C (second compound 0.01 µM, first compound 0.03 µM): 72.9%
viability, T/C (second compound 0.01 µM, first compound 0.0949 µM): 58.4%
viability, T/C (second compound 0.01 µM, first compound 0.3 µM): 30.9%
viability, T/C (second compound 0.0316 µM, first compound 0.000949 µM): 92.7%
viability, T/C (second compound 0.0316 µM, first compound 0.003 µM): 88.1%
viability, T/C (second compound 0.0316 µM, first compound 0.00949 µM): 79.4%
viability, T/C (second compound 0.0316 µM, first compound 0.03 µM): 75.8%
viability, T/C (second compound 0.0316 µM, first compound 0.0949 µM): 60.9%
viability, T/C (second compound 0.0316 µM, first compound 0.3 µM): 25.6%
viability, T/C (second compound 0.1 µM, first compound 0.000949 µM): 94.8%
viability, T/C (second compound 0.1 µM, first compound 0.003 µM): 88.6%
viability, T/C (second compound 0.1 µM, first compound 0.00949 µM): 79.3%
viability, T/C (second compound 0.1 µM, first compound 0.03 µM): 68.9%
viability, T/C (second compound 0.1 µM, first compound 0.0949 µM): 60%
viability, T/C (second compound 0.1 µM, first compound 0.3 µM): 32%
viability, T/C (second compound 0.316 µM, first compound 0.000949 µM): 96%
viability, T/C (second compound 0.316 µM, first compound 0.003 µM): 91.9%
viability, T/C (second compound 0.316 µM, first compound 0.00949 µM): 82.7%
viability, T/C (second compound 0.316 µM, first compound 0.03 µM): 80%
viability, T/C (second compound 0.316 µM, first compound 0.0949 µM): 63.6%
viability, T/C (second compound 0.316 µM, first compound 0.3 µM): 28.3%
viability, T/C (second compound 1 µM, first compound 0.000949 µM): 93.2%
viability, T/C (second compound 1 µM, first compound 0.003 µM): 93.4%
viability, T/C (second compound 1 µM, first compound 0.00949 µM): 85.1%
viability, T/C (second compound 1 µM, first compound 0.03 µM): 85.3%
viability, T/C (second compound 1 µM, first compound 0.0949 µM): 62.4%
viability, T/C (second compound 1 µM, first compound 0.3 µM): 34.9%

CC(Nc1ccc2c(c1)OCCn1cc(N3C(=O)OCC3C(F)F)nc1-2)C(N)=O (centres undefined) + C=CC(=O)N1CCN(c2nc(OCC3CCCN3C)nc3c(F)c(-c4nc(N)cc(C)c4C(F)(F)F)c(Cl)cc23)C(C)C1
IC50 (second compound 0.00316 µM): 1470 nM
IC50 (second compound 0.01 µM): 838 nM
IC50 (second compound 0.0316 µM): 1580 nM
IC50 (second compound 0.1 µM): 2010 nM
IC50 (second compound 0.316 µM): 3130 nM
IC50 (second compound 1 µM): 2030 nM
viability, T/C (second compound 0.00316 µM, first compound 0.0316 µM): 89.6%
viability, T/C (second compound 0.00316 µM, first compound 0.1 µM): 68.5%
viability, T/C (second compound 0.00316 µM, first compound 0.316 µM): 62.4%
viability, T/C (second compound 0.00316 µM, first compound 1 µM): 54.2%
viability, T/C (second compound 0.00316 µM, first compound 3.16 µM): 46.8%
viability, T/C (second compound 0.00316 µM, first compound 10 µM): 36.2%
viability, T/C (second compound 0.01 µM, first compound 0.0316 µM): 95.5%
viability, T/C (second compound 0.01 µM, first compound 0.1 µM): 75.5%
viability, T/C (second compound 0.01 µM, first compound 0.316 µM): 56.5%
viability, T/C (second compound 0.01 µM, first compound 1 µM): 50.2%
viability, T/C (second compound 0.01 µM, first compound 3.16 µM): 43.5%
viability, T/C (second compound 0.01 µM, first compound 10 µM): 41.1%
viability, T/C (second compound 0.0316 µM, first compound 0.0316 µM): 90.7%
viability, T/C (second compound 0.0316 µM, first compound 0.1 µM): 76.7%
viability, T/C (second compound 0.0316 µM, first compound 0.316 µM): 65.2%
viability, T/C (second compound 0.0316 µM, first compound 1 µM): 51.2%
viability, T/C (second compound 0.0316 µM, first compound 3.16 µM): 47%
viability, T/C (second compound 0.0316 µM, first compound 10 µM): 38.4%
viability, T/C (second compound 0.1 µM, first compound 0.0316 µM): 85.2%
viability, T/C (second compound 0.1 µM, first compound 0.1 µM): 71%
viability, T/C (second compound 0.1 µM, first compound 0.316 µM): 64.3%
viability, T/C (second compound 0.1 µM, first compound 1 µM): 50.4%
viability, T/C (second compound 0.1 µM, first compound 3.16 µM): 49.6%
viability, T/C (second compound 0.1 µM, first compound 10 µM): 43.3%
viability, T/C (second compound 0.316 µM, first compound 0.0316 µM): 87.2%
viability, T/C (second compound 0.316 µM, first compound 0.1 µM): 73.2%
viability, T/C (second compound 0.316 µM, first compound 0.316 µM): 66.2%
viability, T/C (second compound 0.316 µM, first compound 1 µM): 55.9%
viability, T/C (second compound 0.316 µM, first compound 3.16 µM): 50.8%
viability, T/C (second compound 0.316 µM, first compound 10 µM): 44.4%
viability, T/C (second compound 1 µM, first compound 0.0316 µM): 85.6%
viability, T/C (second compound 1 µM, first compound 0.1 µM): 71%
viability, T/C (second compound 1 µM, first compound 0.316 µM): 68%
viability, T/C (second compound 1 µM, first compound 1 µM): 52%
viability, T/C (second compound 1 µM, first compound 3.16 µM): 47.8%
viability, T/C (second compound 1 µM, first compound 10 µM): 40.8%

— PubChem BioAssay AID2060888 (Molecular Pharmacology Branch, DTP, NCI, 2025)
